According to US12077503B2, “Substituted cyclic amides and their use as herbicides” (FMC CORPORATION, priority 2015, dated 2024):

Assays:
Type in all cases: in vivo
[1] = system: giant foxtail (Setaria faberii); test: Test A preemergence; details: Setaria faberi, pre-emergence, 240 h, preemergence, 0 to 100 scale where 0 is no effect and 100 is complete control, read-out: Foxtail, Giant plant response rating
Procedure, shortened: (§1)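 Preemergence soil spray on seeded pots or post-emergence spray on 1–2 leaf plants, in loam–sand blend. Greenhouse ~10 d. Visual rating 0–100 against untreated plants.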

Kochia (Kochia scoparia) [2] = test: Test A preemergence; details: Bassia scoparia, pre-emergence, 240 h, preemergence, 0 to 100 scale where 0 is no effect and 100 is complete control, read-out: Kochia plant response rating
Procedure, shortened: as §1

[3] = system: ryegrass, Italian (Italian ryegrass, Lolium multiflorum); test: Test A preemergence; details: Lolium multiflorum, pre-emergence, 240 h, preemergence, 0 to 100 scale where 0 is no effect and 100 is complete control, read-out: Ryegrass, Italian plant response rating
Procedure, shortened: as §1

[4] = system: ragweed (common ragweed, Ambrosia elatior); test: Test A preemergence; details: Ambrosia artemisiifolia, pre-emergence, 240 h, preemergence, 0 to 100 scale where 0 is no effect and 100 is complete control, read-out: Ragweed plant response rating
Procedure, shortened: as §1

[5] = system: pigweed (Amaranthus retroflexus); test: Test A preemergence; details: Amaranthus retroflexus, pre-emergence, 240 h, preemergence, 0 to 100 scale where 0 is no effect and 100 is complete control, read-out: Pigweed plant response rating
[6] = system: barnyardgrass (Echinochloa crus-galli); test: Test A preemergence; details: Echinochloa crus-galli, pre-emergence, 240 h, preemergence, 0 to 100 scale where 0 is no effect and 100 is complete control, read-out: Barnyardgrass plant response rating
Procedure, shortened: as §1

[7] = system: giant foxtail (Setaria faberii); test: Test A postemergence; details: Setaria faberi, post-emergence, 240 h, postemergence, read-out: Foxtail, Giant plant response rating
Procedure, shortened: as §1

[8] = system: wheat (Triticum aestivum); test: Test A postemergence; details: Triticum aestivum, post-emergence, 240 h, postemergence
Procedure, shortened: as §1

Kochia (Kochia scoparia) [9] = test: Test A postemergence; details: Bassia scoparia, post-emergence, 240 h, postemergence, read-out: Kochia plant response rating
Procedure, shortened: as §1

[10] = system: blackgrass (Alopecurus myosuroides); test: Test A postemergence; details: Alopecurus myosuroides, post-emergence, 240 h, postemergence, read-out: Blackgrass plant response rating
Procedure, shortened: as §1

corn (Zea mays) = test: Test A postemergence; details: Zea mays, post-emergence, 240 h, postemergence, read-out: Corn plant response rating
Procedure, shortened: as §1

[11] = system: ryegrass, Italian (Italian ryegrass, Lolium multiflorum); test: Test A postemergence; details: Lolium multiflorum, post-emergence, 240 h, postemergence
Procedure, shortened: as §1

[12] = system: ragweed (common ragweed, Ambrosia elatior); test: Test A postemergence; details: Ambrosia artemisiifolia, post-emergence, 240 h, postemergence
Procedure, shortened: as §1

[13] = system: Galium (catchweed bedstraw, Galium aparine); test: Test A postemergence; details: Galium, post-emergence, 240 h, postemergence, read-out: Galium plant response rating
Procedure, shortened: as §1

[14] = system: pigweed (Amaranthus retroflexus); test: Test A postemergence; details: Amaranthus retroflexus, post-emergence, 240 h, postemergence
Procedure, shortened: as §1

[15] = system: barnyardgrass (Echinochloa crus-galli); test: Test A postemergence; details: Echinochloa crus-galli, post-emergence, 240 h, postemergence, read-out: Barnyardgrass plant response rating
Procedure, shortened: as §1

[16] = 125 g ai/ha, visual injury on 0 to 100 scale (0 no effect, 100 complete control), approx. 10 d
[17] = 500 g ai/ha, 0 to 100 scale, 0 is no effect, 100 is complete control

## CN1C[C@H](c2ccc(C(F)(F)F)cc2)[C@@](F)(C(=O)Nc2cccc(F)c2F)C1=O (racemic) [Compound 1151]
[1]; 125 g ai/ha, approx. 10 d
  pest or weed control at 125 g/ha: 100%
[1]; 500 g ai/ha
  pest or weed control at 500 g/ha: 100%
Kochia (Kochia scoparia) [2]; 125 g ai/ha, approx. 10 d
  pest or weed control at 125 g/ha: 70%
Kochia (Kochia scoparia) [2]; 500 g ai/ha
  pest or weed control at 500 g/ha: 80%
[3]; 125 g ai/ha, approx. 10 d
  pest or weed control at 125 g/ha: 70%
[3]; 500 g ai/ha
  pest or weed control at 500 g/ha: 70%
[4]; 125 g ai/ha, approx. 10 d
  pest or weed control at 125 g/ha: 0%
[4]; 500 g ai/ha
  pest or weed control at 500 g/ha: 60%
[5]; 125 g ai/ha, approx. 10 d
  pest or weed control at 125 g/ha: 80%
[5]; 500 g ai/ha
  pest or weed control at 500 g/ha: 100%
[6]; 125 g ai/ha, approx. 10 d
  pest or weed control at 125 g/ha: 90%
[6]; 500 g ai/ha
  pest or weed control at 500 g/ha: 100%
[7]; [16]
  pest or weed control at 125 g/ha: 70%
[7]; [17]
  pest or weed control at 500 g/ha: 80%
[8]; 125 g ai/ha, visual injury vs untreated controls after approx. 10 d, 0 = no effect, 100 = complete control, read-out: Wheat plant response rating (0 to 100 scale)
  plant injury at 125 g/ha: 40%
[8]; 500 g ai/ha, 0 to 100 scale, 0 is no effect, 100 is complete control, read-out: Wheat plant response rating
  plant injury at 500 g/ha: 60%
Kochia (Kochia scoparia) [9]; [16]
  pest or weed control at 125 g/ha: 30%
Kochia (Kochia scoparia) [9]; [17]
  pest or weed control at 500 g/ha: 60%
[10]; [16]
  pest or weed control at 125 g/ha: 30%
[10]; [17]
  pest or weed control at 500 g/ha: 60%
Corn (Zea mays); [16]
  plant injury at 125 g/ha: 60%
Corn (Zea mays); [17]
  plant injury at 500 g/ha: 80%
[11]; 125 g ai/ha, visual injury vs untreated controls after approx. 10 d, 0 = no effect, 100 = complete control, read-out: Ryegrass, Italian plant response rating (0 to 100 scale)
  pest or weed control at 125 g/ha: 30%
[11]; 500 g ai/ha, 0 to 100 scale, 0 is no effect, 100 is complete control, read-out: Ryegrass, Italian plant response rating
  pest or weed control at 500 g/ha: 50%
[12]; 125 g ai/ha, visual injury vs untreated controls after approx. 10 d, 0 = no effect, 100 = complete control, read-out: Ragweed plant response rating (0 to 100 scale)
  pest or weed control at 125 g/ha: 0%
[12]; 500 g ai/ha, 0 to 100 scale, 0 is no effect, 100 is complete control, read-out: Ragweed plant response rating
  pest or weed control at 500 g/ha: 30%
[13]; [16]
  pest or weed control at 125 g/ha: 20%
[13]; [17]
  pest or weed control at 500 g/ha: 60%
[14]; 125 g ai/ha, visual injury vs untreated controls after approx. 10 d, 0 = no effect, 100 = complete control, read-out: Pigweed plant response rating (0 to 100 scale)
  pest or weed control at 125 g/ha: 20%
[14]; 500 g ai/ha, 0 to 100 scale, 0 is no effect, 100 is complete control, read-out: Pigweed plant response rating
  pest or weed control at 500 g/ha: 80%
[15]; [16]
  pest or weed control at 125 g/ha: 80%
[15]; [17]
  pest or weed control at 500 g/ha: 90%
